From patent US7595333B2, “Agent for improving acidosis” (priority 1999, dated 2009) come the findings set out here.

Assay [1] has as its system Wistar fatty rats. The assay is described as follows: Effect on ketosis caused by a biguanide (metformin) in Wistar fatty rats (total ketone bodies in plasma). The format is in vivo, rat. As to conditions: for concentration of total ketone bodies, higher as compared with Group A (without metformin and pioglitazone hydrochloride) / concentration of total ketone bodies in plasma: metformin 300 mg/kg/day; for concentration of total ketone bodies, higher as compared with Group A (without metformin and pioglitazone hydrochloride): difference of means; for concentration of total ketone bodies in plasma: Wistar fatty rats, pioglitazone hydrochloride 1 mg/kg/day, mean ± SD, n=6. The text has this: 3-Hydroxybutyric acid (3-HB) in samples is specifically oxidized by 3-hydroxybutyric acid dehydrogenase (3-HBDH) in the presence of an oxidized form of β-thionicotinamide adenine dinucleotide (thio-NAD) to produce acetoacetic acid (AcAc) and a reduced form of β-thionicotinamide adenine dinucleotide (thio-NADH). […] The concentration of total ketone bodies which is the sum of 3-HB and AcAc in samples can be calculated by determining a production speed of thio-NADH thus obtained.
Effects of an insulin sensitizer (pioglitazone hydrochloride) on ketosis caused by a biguanide (metformin) in Wistar fatty rats, NIDDM models, were studied.
First, Wistar fatty rats (31 week-old, male) were divided into three groups, namely Groups A, B and C, each consisting of 6 rats. […] After administration, blood was collected from the tail vein of the Wistar fatty rats, and total ketone bodies in the plasma were determined in the same manner as in Experimental Example 1.
In the table, W. fatty. Met and Pio mean Wistar fatty rat, metformin and pioglitazone hydrochloride, respectively. Figures in the table represent means ± standard deviation (number of subjects=6).
The concentration of total ketone bodies in plasma of Wistar fatty rats was determined in the same manner as in Experimental Example 2 except that the administration period was changed from 14 days to 7 days.

Assay [2] concerns Wistar fatty rats. The assay can be described thus: Effect on diabetic ketosis in Wistar fatty rats (total ketone bodies in plasma). The assay is classed as in vivo, rat. As to conditions: for concentration of total ketone bodies in plasma: Wistar fatty rats (31 week-old, male), pioglitazone hydrochloride 1 mg/kg body weight/day orally for 14 days, mean ± SD, n=6, control without Pio 170.23 ± 22.33 μM. The text has this:
For instance, diabetic ketosis is observed in a Wistar fatty rat which is an animal model of non-insulin dependent (type 2) diabetes mellitus. Therefore, a ketosis improving action of a test compound can be evaluated by comparing concentration of total ketone bodies in plasma between Wistar fatty rat groups with administration of a test compound (Experimental group) and Wistar fatty rat groups without administration of a test compound (Control group). […] 3-Hydroxybutyric acid (3-HB) in samples is specifically oxidized by 3-hydroxybutyric acid dehydrogenase (3-HBDH) in the presence of an oxidized form of β-thionicotinamide adenine dinucleotide (thio-NAD) to produce acetoacetic acid (AcAc) and a reduced form of β-thionicotinamide adenine dinucleotide (thio-NADH). […] Effects of an insulin sensitizer (pioglitazone hydrochloride) on diabetic ketosis in Wistar fatty rats, animal models of non-insulin dependent diabetes mellitus (NIDDM), were studied. First, Wistar fatty rats (31 week-old, male) were divided into two groups each consisting of 6 rats. […] After administration, blood was collected from the tail vein of the Wistar fatty rats, and total ketone bodies in the plasma were enzymatically determined by using AutoWako total ketone bodies (Trade name)(Wako Pure Chemical Industries, Ltd., Japan) and Hitachi 7070 Autoanalyzing machine. Wistar lean rats (6 rats), animal models of non diabetes mellitus (normal), were orally administered with a 0.5 (w/v) % aqueous methylcellulose solution for 14 days. Then, total ketone bodies in the plasma were determined in the same manner as above. In the table, W, lean, W. fatty and Pio mean Wistar lean rat, Wistar fatty rat and pioglitazone hydrochloride, respectively. Figures in the table represent means ± standard deviation (number of subjects=6).

Structures can show the parent of a compound that is named as a salt.

Regarding `CN(C)C(=N)N=C(N)N` [metformin], the “concentration of total ketone bodies, higher as compared with Group A (without metformin and pioglitazone hydrochloride)” value with Wistar fatty rats [1] (7 days) turned out to be 38.86 µM; in the assay on Wistar fatty rats [1] (14 days), 11.77 µM. Besides, the “concentration of total ketone bodies in plasma” value amounted to 199.23 ± 55.69 µM in the assay on Wistar fatty rats [1] (7 days orally, Group A control 160.37 ± 14.00 μM); 199.23 ± 55.69 µM in the assay on Wistar fatty rats [1] (7 days orally, Group A control 160.37 ± 14.00 μM, listed as Met); 182.00 ± 22.50 µM in the assay with Wistar fatty rats [1] (14 days orally, Group A control 170.23 ± 22.33 μM); 182.00 ± 22.50 µM in the assay with Wistar fatty rats [1] (14 days orally, Group A control 170.23 ± 22.33 μM, listed as Met).

Regarding `CCc1ccc(CCOc2ccc(CC3SC(=O)NC3=O)cc2)nc1` (centres unmarked) [pioglitazone hydrochloride, 5-[4-[2-(5-ethyl-2-pyridyl)ethoxy]benzyl]-2,4-thiazolidinedione], the “concentration of total ketone bodies in plasma” value in the assay on Wistar fatty rats [2] and with Wistar fatty rats [2] (listed as Pio) was 125.72 ± 12.49 µM in each case. Further, the “effect on diabetic ketosis (conclusion in words)” value in the assay with Wistar fatty rats [2] (Wistar fatty rats, 1 mg/kg/day orally, 14 days) is “improves diabetic ketosis”. In addition, the “concentration of total ketone bodies, lower as compared with the group without pioglitazone hydrochloride” value with Wistar fatty rats [2] (Wistar fatty rats, 1 mg/kg/day orally, 14 days, difference of means) stood at 44.51 µM. In addition, the “effect on ketosis caused by a biguanide (conclusion in words)” value in the assay with Wistar fatty rats [1] (Experimental Examples 2 and 3 (14 and 7 days)) was “improves ketosis caused by a biguanide (metformin)”.
